Where two headings read alike, the source gives them in different places.
Tests used:
blood [1] = assay: GeneChip analysis of blood (Rat Expression Array 230A), 7-day administration; assay type: in vivo; conditions: rat blood 24 hr after 7 consecutive days of oral administration, pooled, 4 rats per group; dose per compound in table
Protocol: (§1) After collection using PAXgene Blood RNA Tube (PreAnalytiX), the blood was stood for 2 hr or more, and cryopreserved at −80° C. Total RNA was extracted using a PAXgene Blood RNA Kit (PreAnalytiX). A sample for GeneChip analysis was prepared and analyzed according to the protocol provided by Affymetrix Inc. cDNA synthesis reaction was carried out using a SuperScript Choice system (Invitrogen), then biotin-labeled cRNA synthesis reaction was carried out using Enzo BioArray HighYield RNA Transcript Labeling Kit (Affymetrix), after which cRNA was fragmented and a labeled sample was prepared. The labeled sample was hybridized to Rat Expression Array 230A (RAE230A, Affymetrix), the array was stained, washed and scanned by GeneChip system (Affymetrix), and the following three image data were obtained from one sheet of array.
(§2) From the image data, measurement value (Signal), numerical data such as Signal Log Ratio and the like and determination data such as Detection, Change and the like were obtained using MicroarraySuite5.0 (parameter: Default value). Fold Change was calculated from Signal Log Ratio of the image data 2 using the conversion equation of Fold Change=2^Signal Log Ratio.
(§3) (*In GeneChip analysis using RAE230A, 11 sites per one measurement target sequence are measured, and the measurement results at 11 sites are combined to give one numerical value and determination data. RAE230A contains 15924 combinations of 11 site measurement sets, and each measurement set is referred to as a probe set.)
(§4) A probe set wherein two or more of the above-mentioned three image data satisfy the following three conditions was taken as a variation probe set.
(§5) 1. A probe set judged as Increase or Decrease by MicroarraySuite5.0 2. A probe set whose higher measurement value (Signal) was judged as Presence by MicroarraySuite5.0 3.
At 24 hr after completion of the oral administration for 7 consecutive days in Example 3, the blood was collected from the compound administration group and the control (non-administration) group (4 rats per group), which was pooled and subjected to GeneChip analysis in the same manner as in Example 2.

Crj:CD(SD)IGS rats [2] = conditions: rat, in vivo
Protocol: After completion of the administration, in all animals, livers, kidneys, spleens, lungs and mesenteric lymph nodes were sampled, these sampled tissues were examined for histopathological changes by conventional methods of optical microscopy and electron microscopy. In addition, a blood smear sample (Giemsa stain sample) was prepared, and the vacuolated lymphocyte ratio of the peripheral blood was measured with observation under a microscope.

Crj:CD(SD)IGS rats [3] = conditions: rat, in vivo; remark: listed apart in the source
blood [4] = assay: GeneChip analysis of blood (Rat Expression Array 230A), 3-day administration; assay type: in vivo; conditions: rat blood 24 hr after 3 consecutive days of oral administration, pooled, 3 rats per group; dose per compound in table
Protocol: At 24 hr after completion of the oral administration for 3 consecutive days in Example 1, the blood was collected from the compound administration group and the control (non-administration) group (3 rats per group), which was pooled and subjected to GeneChip analysis.
as §1
1. data of staining by a method omitting fluorescence amplification reaction by antibody 2. data of staining by the method described in a manual for once performing fluorescence amplification reaction by antibody 3. data of staining by a method for twice performing fluorescence amplification reaction by antibody
as §2, §3, §4, §5

| Compound | Number of expression variation probe sets, Decreased expression (blood [1]) | Number of expression variation probe sets, Increased expression (blood [1]) | Histopathological findings (PLsis) Kidney (Crj:CD(SD)IGS rats [2]) | Histopathological findings (PLsis) Liver (Crj:CD(SD)IGS rats [2]) | Histopathological findings (PLsis) Lung (Crj:CD(SD)IGS rats [2]) | Histopathological findings (PLsis) Lymph node (Crj:CD(SD)IGS rats [2]) | Histopathological findings (PLsis) Spleen (Crj:CD(SD)IGS rats [2]) | Histopathological findings (PLsis) Liver (Crj:CD(SD)IGS rats [3]) | Histopathological findings (PLsis) Lung (Crj:CD(SD)IGS rats [3]) | Histopathological findings (PLsis) Lymph node (Crj:CD(SD)IGS rats [3]) | Histopathological findings (PLsis) Others (Crj:CD(SD)IGS rats [3]) | Histopathological findings (PLsis) Spleen (Crj:CD(SD)IGS rats [3]) | Number of expression variation probe sets, Decreased expression (blood [4]) | Number of expression variation probe sets, Increased expression (blood [4]) |
| --- | --- | --- | --- | --- | --- | --- | --- | --- | --- | --- | --- | --- | --- | --- |
| CN(C)CCCN1c2ccccc2CCc2ccccc21 [Imipramine, imipramine] | 320 | 123 | − | ++ | + | − | − |  |  |  |  |  |  |  |
| C1CCC(C(CC2CCCCN2)C2CCCCC2)CC1 (stereo not drawn) [Perhexiline, perhexiline] | 83 | 49 | − | − | + | + | − | − | + | + | − | + | 179 | 310 |
| CCCCc1oc2ccccc2c1C(=O)c1cc(I)c(OCCN(CC)CC)c(I)c1 [Amiodarone, amiodarone] | 457 | 515 | − | − | ++ | ++ | − | − | + | + | − | + | 282 | 613 |
| CCN(CC)CCCC(C)Nc1ccnc2cc(Cl)ccc12 (stereo not drawn) [Chloroquine, chloroquine] | 179 | 310 | − | + | − | − | + | − | − | + | − | + | 318 | 382 |
| CC/C(=C(\c1ccccc1)c1ccc(OCCN(C)C)cc1)c1ccccc1 [Tamoxifen, tamoxifen] | 368 | 546 | − | − | + | ++ | − | + | + | + | − | − | 94 | 258 |
| CCN(CC)CCCC(C)Nc1c2ccc(Cl)cc2nc2ccc(OC)cc12 (stereo not drawn) [Quinacrine, quinacrine] | 103 | 258 | + | ++ | + | − | + | + | + | + | − | − | 392 | 240 |
| CNCCC(Oc1ccc(C(F)(F)F)cc1)c1ccccc1 (stereo not drawn) [Fluoxetine, fluoxetine] |  |  |  |  |  |  |  | + | + | + | brain | − | 391 | 372 |

From US20100129790A1, “Method for Determining Phospholipidosis” (TAKEDA PHARMACEUTICAL LIMITED, priority 2005, published 2010)
